Test results reported in paper PMC10829846 (Emerging Microbes & Infections, 2023).

B1: recombinant NDM-1 (Klebsiella pneumoniae) (protein)
chain: MHHHHHHMPGEIRPTIGQQMETGDQRFGDLVFRQLAPNVWQHTSYLDMPGFGAVASNGLIVRDGGRVLVVDTAWTDDQTAQILNWIKQEINLPVALAVVTHAHQDKMGGMDALHAAGIATYANALSNQLAPQEGMVAAQHSLTFAANGWVEPATAPNFGPLKVFYPGPGHTSDNITVGIDGTDIAFGGCLIKDSKAKSLGNLGDADTEHYAASARAFGAAFPKASMIVMSHSAPDSRAAITHTARMADKLR

Columns and labels:
NDM-1 [1] = biological target: T1, NDM-1 (Klebsiella pneumoniae, UniProt C7C422); assay: Inhibition of NDM-1 hydrolytic activity, enzymatic assay with meropenem; type: biochemical; conditions: for Restoration of NDM-1 activity by zinc supplementation: 1-fold or 10-fold concentration of Zn^2+; for Inhibitory mode: Lineweaver-Burk plot
EC1864 = assay: Sepsis model; type: in vivo, ICR mice; conditions: compound oral + meropenem i.v., all 10 mg/kg once daily
[2] = test system: NDM-1 positive bacteria EC1864; assay: Checkerboard assay with meropenem; type: cell-based, Escherichia coli; conditions: meropenem alone […]
NDM-1 [3] = biological target: T1, NDM-1; conditions: cited from earlier work
[4] = substrate: C[C@@H](O)[C@H]1C(=O)N2C(C(=O)O)=C(S[C@@H]3CN[C@H](C(=O)N(C)C)C3)[C@H](C)[C@H]12; assay: purified protein, by the assay type; type: biochemical; conditions: other: meropenem as substrate of recombinant NDM-1; pH 7.5

Molecule	Restoration of NDM-1 activity by zinc supplementation (NDM-1 [1])	Inhibitory mode (NDM-1 [1])	Survival rate of sepsis mice, combination therapy with meropenem (EC1864)	MIC value of meropenem with sub-MIC concentration of the compound [2]	Concentration that completely inhibited NDM-1 activity (NDM-1 [3])	Km [4]	kcat [4]
O=C(O)CN(CCN(CC(=O)O)CC(=O)O)CC(=O)O [EDTA]	partially or fully restored	non-competitive inhibition	–	–	–	–	–
O=[N+]([O-])c1ccc(O)c2ncccc12 [nitroxoline, 5-nitro-8-hydroxyquinoline]	partially or fully restored	non-competitive inhibition	did not exhibit a protective effect	8 µg/mL	30 µM	–	–
B1	–	–	–	–	–	54.72 µM	11.71 s⁻¹
